The source of these data is the supplement of paper PMC8967900.
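Further: ALL cell lines in 384-well plates, five doses spanning 10,000-fold, each plate scaled between vehicle and 100 µmol/L benzalkonium chloride controls, sDSS an adapted area-under-curve metric.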

For the first assay, the system named is TMD5. Nature of the assay: selective drug sensitivity score (sDSS, relative to normal bone marrow) (sDSS (score)); higher = more potent and effective on the cell line relative to normal bone marrow cells. The note with it: 72 h.
On to `Cn1cc(C2=C(c3cn(C4CCN(Cc5ccccn5)CC4)c4ccccc34)C(=O)NC2=O)c2ccccc21` [Enzastaurin] (top concentration 10000 nM), for which the “selective drug sensitivity score” value was found to be 0.06.

Turning to `NS(=O)(=O)NCCNc1nonc1/C(=N/O)Nc1ccc(F)c(Br)c1` [Epacadostat] (top concentration 10000 nM), the “selective drug sensitivity score” value was 4.44.

As to `CCOc1ccccc1-n1c(C(C)N2CCN(C(=O)COc3ccc(Cl)cc3)CC2)nc2ccccc2c1=O` (stereo not given) [Erastin] (top concentration 10000 nM), the “selective drug sensitivity score” value came out at 7.04.

In the case of `COc1cc(OC)cc(N(CCNC(C)C)c2ccc3ncc(-c4cnn(C)c4)nc3c2)c1` [Erdafitinib] (top concentration 1000 nM), the “selective drug sensitivity score” value amounted to 4.74.

Regarding `CC(C)(C)NC(=O)[C@H]1CC[C@H]2[C@@H]3CC[C@H]4NC(=O)C=C[C@]4(C)[C@H]3CC[C@]12C` [Finasteride] (top concentration 10000 nM), the “selective drug sensitivity score” value came out at 0.58.

For `O=c1[nH]c(=O)n([C@H]2C[C@H](O)[C@@H](CO)O2)cc1F` [Floxuridine] (top concentration 10000 nM), the “selective drug sensitivity score” value is -1.98.

`CNc1nc(Nc2cn(C(C)(C)C#N)nc2C)ncc1C(F)(F)F` [GNE-0877] (top concentration 1000 nM): the “selective drug sensitivity score” value came out at 0.

As to `CCCc1cc(C)[nH]c(=O)c1CNC(=O)c1cc(-c2ccnc(N3CCN(C)CC3)c2)cc2c1cnn2C(C)C` [GSK343] (top concentration 1000 nM), the “selective drug sensitivity score” value stood at 0.

Consider `O=C(O)c1ccc(O)c2ncccc12` [IOX-1] (top concentration 100000 nM), for which the “selective drug sensitivity score” value stood at 0.64.

A further assay deals with COG-LL-317. Described as above. The note with it: 72 h.
For the compound `CCCCCOC(=O)Nc1nc(=O)n([C@@H]2O[C@H](C)[C@@H](O)[C@H]2O)cc1F` [Capecitabine] (top concentration 10000 nM), the “selective drug sensitivity score” value was -0.06.

`Nc1nc(Cl)nc2c1ncn2[C@H]1C[C@H](O)[C@@H](CO)O1` [Cladribine] (top concentration 1000 nM): the “selective drug sensitivity score” value was 1.06.

For the compound `CCN(CC)CCOc1ccc(/C(=C(/Cl)c2ccccc2)c2ccccc2)cc1` [Clomifene] (top concentration 10000 nM), the “selective drug sensitivity score” value stood at 0.22.

As for `CO[C@@H](C(=O)N1Cc2[nH]nc(NC(=O)c3ccc(N4CCN(C)CC4)cc3)c2C1)c1ccccc1` [Danusertib] (top concentration 10000 nM), the “selective drug sensitivity score” value stood at 19.4.

For `CC[C@@](C)(Nc1ccnc(-c2c[nH]c3ncccc23)n1)C(=O)NCC(F)(F)F` [Decernotinib] (top concentration 10000 nM), the “selective drug sensitivity score” value was -3.94.

With `CN1CCN(c2ccc3nc(-c4c(N)c5c(F)cccc5[nH]c4=O)[nH]c3c2)CC1` [Dovitinib] (top concentration 10000 nM), the “selective drug sensitivity score” value is -0.04.

Turning to `CC(C)(O)CNc1nc(Nc2ccnc(C(F)(F)F)c2)nc(-c2cccc(C(F)(F)F)n2)n1` [Enasidenib] (top concentration 10000 nM), the “selective drug sensitivity score” value is 0.8.

In the case of `CN1CCN(c2ccc(C(=O)Nc3n[nH]c4ccc(Cc5cc(F)cc(F)c5)cc34)c(NC3CCOCC3)c2)CC1` [Entrectinib] (top concentration 1000 nM), the “selective drug sensitivity score” value is -0.7.

With `CNC(=O)c1ccc(N2C(=S)N(c3ccc(C#N)c(C(F)(F)F)c3)C(=O)C2(C)C)cc1F` [Enzalutamide] (top concentration 10000 nM), the “selective drug sensitivity score” value came to 1.18.

Take `Cn1cc(C2=C(c3cn(C4CCN(Cc5ccccn5)CC4)c4ccccc34)C(=O)NC2=O)c2ccccc21` [Enzastaurin] (top concentration 10000 nM): the “selective drug sensitivity score” value stood at 7.26.

For `NS(=O)(=O)NCCNc1nonc1/C(=N/O)Nc1ccc(F)c(Br)c1` [Epacadostat] (top concentration 10000 nM), the “selective drug sensitivity score” value was 1.14.

As to `CCOc1ccccc1-n1c(C(C)N2CCN(C(=O)COc3ccc(Cl)cc3)CC2)nc2ccccc2c1=O` (stereo not given) [Erastin] (top concentration 10000 nM), the “selective drug sensitivity score” value is 11.2.

On to `COc1cc(OC)cc(N(CCNC(C)C)c2ccc3ncc(-c4cnn(C)c4)nc3c2)c1` [Erdafitinib] (top concentration 1000 nM), for which the “selective drug sensitivity score” value was -0.56.

As to `CC(C)(C)NC(=O)[C@H]1CC[C@H]2[C@@H]3CC[C@H]4NC(=O)C=C[C@]4(C)[C@H]3CC[C@]12C` [Finasteride] (top concentration 10000 nM), the “selective drug sensitivity score” value is -0.52.

`O=c1[nH]c(=O)n([C@H]2C[C@H](O)[C@@H](CO)O2)cc1F` [Floxuridine] (top concentration 10000 nM): the “selective drug sensitivity score” value came out at 32.4.

Take `CNc1nc(Nc2cn(C(C)(C)C#N)nc2C)ncc1C(F)(F)F` [GNE-0877] (top concentration 1000 nM): the “selective drug sensitivity score” value was 0.

Turning to `CCCc1cc(C)[nH]c(=O)c1CNC(=O)c1cc(-c2ccnc(N3CCN(C)CC3)c2)cc2c1cnn2C(C)C` [GSK343] (top concentration 1000 nM), the “selective drug sensitivity score” value worked out at 0.

For the compound `O=C(O)c1ccc(O)c2ncccc12` [IOX-1] (top concentration 100000 nM), the “selective drug sensitivity score” value turned out to be 4.54.

For the next assay, the system named is COG-LL-355h. The description is as above. The note with it: 72 h.
In the case of `CCCCCOC(=O)Nc1nc(=O)n([C@@H]2O[C@H](C)[C@@H](O)[C@H]2O)cc1F` [Capecitabine] (top concentration 10000 nM), the “selective drug sensitivity score” value is -0.06.

Take `Nc1nc(Cl)nc2c1ncn2[C@H]1C[C@H](O)[C@@H](CO)O1` [Cladribine] (top concentration 1000 nM): the “selective drug sensitivity score” value turned out to be 0.16.

Turning to `CCN(CC)CCOc1ccc(/C(=C(/Cl)c2ccccc2)c2ccccc2)cc1` [Clomifene] (top concentration 10000 nM), the “selective drug sensitivity score” value worked out at 0.52.

For the compound `CO[C@@H](C(=O)N1Cc2[nH]nc(NC(=O)c3ccc(N4CCN(C)CC4)cc3)c2C1)c1ccccc1` [Danusertib] (top concentration 10000 nM), the “selective drug sensitivity score” value was 3.04.

With `CC[C@@](C)(Nc1ccnc(-c2c[nH]c3ncccc23)n1)C(=O)NCC(F)(F)F` [Decernotinib] (top concentration 10000 nM), the “selective drug sensitivity score” value was -3.94.

As for `CN1CCN(c2ccc3nc(-c4c(N)c5c(F)cccc5[nH]c4=O)[nH]c3c2)CC1` [Dovitinib] (top concentration 10000 nM), the “selective drug sensitivity score” value came out at 3.66.

On to `CC(C)(O)CNc1nc(Nc2ccnc(C(F)(F)F)c2)nc(-c2cccc(C(F)(F)F)n2)n1` [Enasidenib] (top concentration 10000 nM), for which the “selective drug sensitivity score” value is -0.6.

Turning to `CN1CCN(c2ccc(C(=O)Nc3n[nH]c4ccc(Cc5cc(F)cc(F)c5)cc34)c(NC3CCOCC3)c2)CC1` [Entrectinib] (top concentration 1000 nM), the “selective drug sensitivity score” value worked out at 1.5.

On to `CNC(=O)c1ccc(N2C(=S)N(c3ccc(C#N)c(C(F)(F)F)c3)C(=O)C2(C)C)cc1F` [Enzalutamide] (top concentration 10000 nM), for which the “selective drug sensitivity score” value is -0.82.

Take `Cn1cc(C2=C(c3cn(C4CCN(Cc5ccccn5)CC4)c4ccccc34)C(=O)NC2=O)c2ccccc21` [Enzastaurin] (top concentration 10000 nM): the “selective drug sensitivity score” value amounted to 6.76.

For the compound `NS(=O)(=O)NCCNc1nonc1/C(=N/O)Nc1ccc(F)c(Br)c1` [Epacadostat] (top concentration 10000 nM), the “selective drug sensitivity score” value was -0.26.

Regarding `CCOc1ccccc1-n1c(C(C)N2CCN(C(=O)COc3ccc(Cl)cc3)CC2)nc2ccccc2c1=O` (stereo not given) [Erastin] (top concentration 10000 nM), the “selective drug sensitivity score” value amounted to 14.4.

On to `COc1cc(OC)cc(N(CCNC(C)C)c2ccc3ncc(-c4cnn(C)c4)nc3c2)c1` [Erdafitinib] (top concentration 1000 nM), for which the “selective drug sensitivity score” value is -0.56.

With `CC(C)(C)NC(=O)[C@H]1CC[C@H]2[C@@H]3CC[C@H]4NC(=O)C=C[C@]4(C)[C@H]3CC[C@]12C` [Finasteride] (top concentration 10000 nM), the “selective drug sensitivity score” value is -0.52.

With `O=c1[nH]c(=O)n([C@H]2C[C@H](O)[C@@H](CO)O2)cc1F` [Floxuridine] (top concentration 10000 nM), the “selective drug sensitivity score” value is 6.52.

In the case of `CNc1nc(Nc2cn(C(C)(C)C#N)nc2C)ncc1C(F)(F)F` [GNE-0877] (top concentration 1000 nM), the “selective drug sensitivity score” value was found to be 0.

For `CCCc1cc(C)[nH]c(=O)c1CNC(=O)c1cc(-c2ccnc(N3CCN(C)CC3)c2)cc2c1cnn2C(C)C` [GSK343] (top concentration 1000 nM), the “selective drug sensitivity score” value was 0.

For the compound `O=C(O)c1ccc(O)c2ncccc12` [IOX-1] (top concentration 100000 nM), the “selective drug sensitivity score” value turned out to be 3.24.
